Assays:
Test in all cases: KINOMEscan kinase binding assay
[1] = molecular target: T1, 384 kinases from the human genome (Homo sapiens, UniProt P42680); details: kinase TEC (Entrez TEC)
T1 construct: purchased Eurofin/DiscoverX
From the text: (§1) We reasoned that because internalizing AT1R and its targeting to intracellular compartments can support continued MAPK signaling, and since 21 inhibits receptor internalization, it should also impede to some extent ERK1/2 activation. […] Receptor-mediated ERK1/2 signaling can involve upstream kinases such as PKC, BRAF, and MEK1[35],[36]. […] To exclude other kinases potentially involved in ERK1/2 and Akt activation as targets of 21, we ran a kinase binding assay (KINOMEscan™) on 384 kinases from the human genome. Remarkably, a very high selectivity score S(10) of 0.008 was found (Supplementary Data 3).
(§2) The chemical library used for initial screening was from Chembridge DiverSet™ (60,000 compounds), Maybridge HitFinder™ (16,000 compounds), Maybridge (selected, 16,000 compounds), SPECS (selected, 16000 compounds), Microsource Discovery Spectrum (2000 compounds), Biomol (natural products, 500 compounds), Prestwick (commercialized products, 1120 compounds), SIGMA LopacTM (1280 compounds) and internal collection (synthesized at Université de Montréal-IRIC, ~4000 compounds). Compounds were all assigned an Université de Montréal number (UM) for internal use. Screen was performed at IRIC HTS facility. KINOMEscan™ profiling was serviced by Eurofin/DiscoverX (San Diego, USA).
(§3) Description of Additional Supplementary Files […]
(§4) File Name: Supplementary Data 3
(§5) Description: KINOMEscan results. Compound 21’s effect was tested on 384 kinases. Data represent kinases binding to their ligands in presence of 10 µM of 21, as compared to DMSO (100%). Results are from one experiment and represent the average of duplicates. Three kinases (FLT3, KIT, and PDGFRB) out of 384 were more than 90% affected (selectivity score S(10) of 0.008). […]

[2] = molecular target: T2, 384 kinases from the human genome (Homo sapiens, UniProt Q86Z02); details: kinase HIPK1 (Entrez HIPK1)
T2 construct: purchased Eurofin/DiscoverX
From the text: as §1, §2, §3, §4, §5

[3] = molecular target: T3, 384 kinases from the human genome (Homo sapiens, UniProt P11362); details: kinase FGFR1 (Entrez FGFR1)
T3 construct: purchased Eurofin/DiscoverX
From the text: as §1, §2, §3, §4, §5

[4] = molecular target: T4, 384 kinases from the human genome (Homo sapiens, UniProt O60285); details: kinase ARK5 (Entrez NUAK1)
T4 construct: purchased Eurofin/DiscoverX
From the text: as §1, §2, §3, §4, §5

[5] = molecular target: T5, 384 kinases from the human genome (Homo sapiens, UniProt Q96SB4); details: kinase SRPK1 (Entrez SRPK1)
T5 construct: purchased Eurofin/DiscoverX
From the text: as §1, §2, §3, §4, §5

[6] = molecular target: T6, 384 kinases from the human genome (Homo sapiens, UniProt P53671); details: kinase LIMK2 (Entrez LIMK2)
T6 construct: purchased Eurofin/DiscoverX
From the text: as §1, §2, §3, §4, §5

[7] = molecular target: T7, 384 kinases from the human genome (Homo sapiens, UniProt Q6ZN16); details: kinase MAP3K15 (Entrez MAP3K15)
T7 construct: purchased Eurofin/DiscoverX
From the text: as §1, §2, §3, §4, §5

[8] = molecular target: T8, 384 kinases from the human genome (Homo sapiens, UniProt P07948); details: kinase LYN (Entrez LYN)
T8 construct: purchased Eurofin/DiscoverX
From the text: as §1, §2, §3, §4, §5

[9] = molecular target: T9, 384 kinases from the human genome (Homo sapiens, UniProt O14757); details: kinase CHEK1 (Entrez CHEK1)
T9 construct: purchased Eurofin/DiscoverX
From the text: as §1, §2, §3, §4, §5

[10] = molecular target: T10, 384 kinases from the human genome (Homo sapiens, UniProt P29322); details: kinase EPHA8 (Entrez EPHA8)
T10 construct: purchased Eurofin/DiscoverX
From the text: as §1, §2, §3, §4, §5

[11] = molecular target: T11, 384 kinases from the human genome (Homo sapiens, UniProt P80192); details: kinase MLK1 (Entrez MAP3K9)
T11 construct: purchased Eurofin/DiscoverX
From the text: as §1, §2, §3, §4, §5

[12] = molecular target: T12, 384 kinases from the human genome (Homo sapiens, UniProt Q5S007); details: kinase LRRK2 (Entrez LRRK2)
T12 construct: purchased Eurofin/DiscoverX
From the text: as §1, §2, §3, §4, §5

[13] = molecular target: T13, 384 kinases from the human genome (Homo sapiens, UniProt Q9Y463); details: kinase DYRK1B (Entrez DYRK1B)
T13 construct: purchased Eurofin/DiscoverX
From the text: as §1, §2, §3, §4, §5

[14] = molecular target: T14, 384 kinases from the human genome (Homo sapiens, UniProt Q00526); details: kinase CDK3 (Entrez CDK3)
T14 construct: purchased Eurofin/DiscoverX
From the text: as §1, §2, §3, §4, §5

[15] = molecular target: T15, 384 kinases from the human genome (Homo sapiens, UniProt Q9UPZ9); details: kinase ICK (Entrez ICK)
T15 construct: purchased Eurofin/DiscoverX
From the text: as §1, §2, §3, §4, §5

[16] = molecular target: T16, 384 kinases from the human genome (Homo sapiens, UniProt Q9P286); details: kinase PAK7 (Entrez PAK7)
T16 construct: purchased Eurofin/DiscoverX
From the text: as §1, §2, §3, §4, §5

[17] = molecular target: T17, 384 kinases from the human genome (Homo sapiens, UniProt Q86UX6); details: kinase YANK3 (Entrez STK32C)
T17 construct: purchased Eurofin/DiscoverX
From the text: as §1, §2, §3, §4, §5

[18] = molecular target: T18, 384 kinases from the human genome (Homo sapiens, UniProt Q8NFD2); details: kinase ANKK1 (Entrez ANKK1)
T18 construct: purchased Eurofin/DiscoverX
From the text: as §1, §2, §3, §4, §5

[19] = molecular target: T19, 384 kinases from the human genome (Homo sapiens, UniProt Q09013); details: kinase DMPK (Entrez DMPK)
T19 construct: purchased Eurofin/DiscoverX
From the text: as §1, §2, §3, §4, §5

[20] = molecular target: T20, 384 kinases from the human genome (Homo sapiens, UniProt Q9UL54); details: kinase TAOK2 (Entrez TAOK2)
T20 construct: purchased Eurofin/DiscoverX
From the text: as §1, §2, §3, §4, §5

[21] = molecular target: T21, 384 kinases from the human genome (Homo sapiens, UniProt Q13523); details: kinase PRP4 (Entrez PRPF4B)
T21 construct: purchased Eurofin/DiscoverX
From the text: as §1, §2, §3, §4, §5

[22] = molecular target: T22, 384 kinases from the human genome (Homo sapiens, UniProt P49761); details: kinase CLK3 (Entrez CLK3)
T22 construct: purchased Eurofin/DiscoverX
From the text: as §1, §2, §3, §4, §5

[23] = molecular target: T23, 384 kinases from the human genome (Homo sapiens, UniProt Q08881); details: kinase ITK (Entrez ITK)
T23 construct: purchased Eurofin/DiscoverX
From the text: as §1, §2, §3, §4, §5

[24] = molecular target: T24, 384 kinases from the human genome (Homo sapiens, UniProt P36894); details: kinase BMPR1A (Entrez BMPR1A)
T24 construct: purchased Eurofin/DiscoverX
From the text: as §1, §2, §3, §4, §5

[25] = molecular target: T25, 384 kinases from the human genome (Homo sapiens, UniProt Q15569); details: kinase TESK1 (Entrez TESK1)
T25 construct: purchased Eurofin/DiscoverX
From the text: as §1, §2, §3, §4, §5

[26] = molecular target: T26, 384 kinases from the human genome (Homo sapiens, UniProt O96013); details: kinase PAK4 (Entrez PAK4)
T26 construct: purchased Eurofin/DiscoverX
From the text: as §1, §2, §3, §4, §5

[27] = molecular target: T27, 384 kinases from the human genome (Homo sapiens, UniProt Q9P289); details: kinase MST4 (Entrez MST4)
T27 construct: purchased Eurofin/DiscoverX
From the text: as §1, §2, §3, §4, §5

T11 sequence (P80192 whole entry): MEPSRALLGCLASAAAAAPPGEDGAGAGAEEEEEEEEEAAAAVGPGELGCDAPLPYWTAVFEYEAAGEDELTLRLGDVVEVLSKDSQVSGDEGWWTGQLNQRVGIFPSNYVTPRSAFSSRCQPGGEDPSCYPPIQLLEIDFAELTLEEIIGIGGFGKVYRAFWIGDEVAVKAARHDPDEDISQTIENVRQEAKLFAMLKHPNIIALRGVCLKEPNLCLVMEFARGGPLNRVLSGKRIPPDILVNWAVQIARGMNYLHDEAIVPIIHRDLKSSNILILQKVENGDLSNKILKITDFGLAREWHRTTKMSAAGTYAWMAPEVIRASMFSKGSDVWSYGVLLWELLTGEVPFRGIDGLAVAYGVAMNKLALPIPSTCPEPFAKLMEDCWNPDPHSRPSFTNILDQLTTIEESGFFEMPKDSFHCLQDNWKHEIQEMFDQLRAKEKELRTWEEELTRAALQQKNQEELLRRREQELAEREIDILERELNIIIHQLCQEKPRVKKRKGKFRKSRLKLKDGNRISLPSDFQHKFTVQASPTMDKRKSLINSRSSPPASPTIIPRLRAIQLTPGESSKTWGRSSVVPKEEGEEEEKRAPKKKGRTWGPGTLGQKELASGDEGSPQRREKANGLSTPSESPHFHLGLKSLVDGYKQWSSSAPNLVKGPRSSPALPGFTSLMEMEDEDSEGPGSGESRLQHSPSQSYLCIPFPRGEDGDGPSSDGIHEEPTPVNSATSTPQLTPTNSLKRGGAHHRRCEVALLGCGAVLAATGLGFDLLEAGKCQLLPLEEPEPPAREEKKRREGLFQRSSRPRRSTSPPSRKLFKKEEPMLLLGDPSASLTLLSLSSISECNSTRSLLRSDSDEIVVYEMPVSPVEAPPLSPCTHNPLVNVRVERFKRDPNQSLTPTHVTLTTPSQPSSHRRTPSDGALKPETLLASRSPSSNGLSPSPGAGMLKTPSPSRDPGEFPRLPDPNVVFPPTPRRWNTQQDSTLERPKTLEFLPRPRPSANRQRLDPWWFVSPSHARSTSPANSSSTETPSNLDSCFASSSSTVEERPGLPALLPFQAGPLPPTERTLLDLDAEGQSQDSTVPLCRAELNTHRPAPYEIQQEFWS
T14 sequence (Q00526 whole entry): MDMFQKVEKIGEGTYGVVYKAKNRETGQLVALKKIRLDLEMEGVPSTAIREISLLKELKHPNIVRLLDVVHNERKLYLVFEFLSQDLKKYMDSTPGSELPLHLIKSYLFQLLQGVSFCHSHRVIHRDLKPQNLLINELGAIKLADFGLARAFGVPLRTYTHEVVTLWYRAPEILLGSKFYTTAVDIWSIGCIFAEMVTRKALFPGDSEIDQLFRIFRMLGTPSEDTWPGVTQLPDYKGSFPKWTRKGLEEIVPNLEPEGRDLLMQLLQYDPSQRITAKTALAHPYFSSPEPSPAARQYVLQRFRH
T18 sequence (Q8NFD2 whole entry): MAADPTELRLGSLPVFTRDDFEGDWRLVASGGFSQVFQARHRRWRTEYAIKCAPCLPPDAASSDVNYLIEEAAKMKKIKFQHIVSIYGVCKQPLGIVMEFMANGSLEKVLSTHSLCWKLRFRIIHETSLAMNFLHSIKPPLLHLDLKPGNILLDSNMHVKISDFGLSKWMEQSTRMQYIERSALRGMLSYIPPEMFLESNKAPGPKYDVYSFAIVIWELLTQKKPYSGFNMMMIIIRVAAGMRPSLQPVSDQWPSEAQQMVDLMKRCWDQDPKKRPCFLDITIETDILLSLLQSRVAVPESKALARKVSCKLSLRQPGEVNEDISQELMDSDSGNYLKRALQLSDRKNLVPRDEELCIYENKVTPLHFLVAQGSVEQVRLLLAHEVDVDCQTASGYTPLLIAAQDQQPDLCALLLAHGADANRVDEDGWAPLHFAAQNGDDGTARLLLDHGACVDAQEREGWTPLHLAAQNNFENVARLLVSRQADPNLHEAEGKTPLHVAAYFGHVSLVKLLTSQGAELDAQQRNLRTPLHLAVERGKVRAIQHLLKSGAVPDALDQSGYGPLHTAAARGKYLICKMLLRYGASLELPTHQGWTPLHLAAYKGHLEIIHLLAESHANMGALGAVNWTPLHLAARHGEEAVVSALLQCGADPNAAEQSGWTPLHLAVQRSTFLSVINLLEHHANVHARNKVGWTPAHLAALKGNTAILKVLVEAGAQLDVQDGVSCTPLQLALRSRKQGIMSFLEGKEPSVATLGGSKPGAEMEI
T3 sequence (P11362 22-822): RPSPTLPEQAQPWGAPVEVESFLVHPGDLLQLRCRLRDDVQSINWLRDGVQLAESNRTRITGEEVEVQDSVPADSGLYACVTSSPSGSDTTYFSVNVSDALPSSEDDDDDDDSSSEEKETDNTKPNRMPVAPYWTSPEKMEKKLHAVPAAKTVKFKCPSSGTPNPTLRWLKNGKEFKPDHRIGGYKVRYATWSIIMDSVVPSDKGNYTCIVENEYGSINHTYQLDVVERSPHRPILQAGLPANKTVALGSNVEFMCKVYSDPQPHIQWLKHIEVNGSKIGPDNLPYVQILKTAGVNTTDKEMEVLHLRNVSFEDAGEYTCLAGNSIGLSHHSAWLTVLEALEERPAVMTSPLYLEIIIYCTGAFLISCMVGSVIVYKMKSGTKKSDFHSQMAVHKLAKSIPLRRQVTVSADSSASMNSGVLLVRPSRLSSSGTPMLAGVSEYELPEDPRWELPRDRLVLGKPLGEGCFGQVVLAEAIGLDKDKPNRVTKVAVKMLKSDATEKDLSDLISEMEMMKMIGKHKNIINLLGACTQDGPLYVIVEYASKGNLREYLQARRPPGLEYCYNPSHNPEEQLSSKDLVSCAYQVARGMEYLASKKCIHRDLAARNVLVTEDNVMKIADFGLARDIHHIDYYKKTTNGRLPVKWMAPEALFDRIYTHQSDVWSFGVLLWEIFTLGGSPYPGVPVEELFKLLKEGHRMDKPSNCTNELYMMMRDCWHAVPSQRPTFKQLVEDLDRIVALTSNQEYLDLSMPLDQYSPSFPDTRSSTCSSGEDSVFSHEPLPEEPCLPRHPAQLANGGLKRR
T1 sequence (P42680 whole entry): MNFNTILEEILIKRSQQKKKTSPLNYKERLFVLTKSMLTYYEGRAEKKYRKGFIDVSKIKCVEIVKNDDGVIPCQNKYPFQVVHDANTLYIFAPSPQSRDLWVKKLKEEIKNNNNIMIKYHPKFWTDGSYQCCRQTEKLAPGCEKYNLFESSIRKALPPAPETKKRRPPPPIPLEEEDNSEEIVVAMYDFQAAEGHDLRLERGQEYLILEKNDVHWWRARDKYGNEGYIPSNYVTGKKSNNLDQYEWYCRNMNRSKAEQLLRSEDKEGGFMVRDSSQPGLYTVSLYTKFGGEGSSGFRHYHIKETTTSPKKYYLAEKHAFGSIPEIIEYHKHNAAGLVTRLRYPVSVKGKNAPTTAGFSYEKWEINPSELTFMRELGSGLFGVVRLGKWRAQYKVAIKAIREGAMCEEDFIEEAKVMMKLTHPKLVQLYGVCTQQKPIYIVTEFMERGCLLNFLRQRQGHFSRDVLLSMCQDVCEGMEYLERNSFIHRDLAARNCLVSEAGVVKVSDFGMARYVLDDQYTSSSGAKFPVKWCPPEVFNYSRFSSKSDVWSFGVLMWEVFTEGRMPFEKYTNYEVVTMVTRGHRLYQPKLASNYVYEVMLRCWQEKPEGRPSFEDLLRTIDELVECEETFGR
T7 sequence (Q6ZN16 whole entry): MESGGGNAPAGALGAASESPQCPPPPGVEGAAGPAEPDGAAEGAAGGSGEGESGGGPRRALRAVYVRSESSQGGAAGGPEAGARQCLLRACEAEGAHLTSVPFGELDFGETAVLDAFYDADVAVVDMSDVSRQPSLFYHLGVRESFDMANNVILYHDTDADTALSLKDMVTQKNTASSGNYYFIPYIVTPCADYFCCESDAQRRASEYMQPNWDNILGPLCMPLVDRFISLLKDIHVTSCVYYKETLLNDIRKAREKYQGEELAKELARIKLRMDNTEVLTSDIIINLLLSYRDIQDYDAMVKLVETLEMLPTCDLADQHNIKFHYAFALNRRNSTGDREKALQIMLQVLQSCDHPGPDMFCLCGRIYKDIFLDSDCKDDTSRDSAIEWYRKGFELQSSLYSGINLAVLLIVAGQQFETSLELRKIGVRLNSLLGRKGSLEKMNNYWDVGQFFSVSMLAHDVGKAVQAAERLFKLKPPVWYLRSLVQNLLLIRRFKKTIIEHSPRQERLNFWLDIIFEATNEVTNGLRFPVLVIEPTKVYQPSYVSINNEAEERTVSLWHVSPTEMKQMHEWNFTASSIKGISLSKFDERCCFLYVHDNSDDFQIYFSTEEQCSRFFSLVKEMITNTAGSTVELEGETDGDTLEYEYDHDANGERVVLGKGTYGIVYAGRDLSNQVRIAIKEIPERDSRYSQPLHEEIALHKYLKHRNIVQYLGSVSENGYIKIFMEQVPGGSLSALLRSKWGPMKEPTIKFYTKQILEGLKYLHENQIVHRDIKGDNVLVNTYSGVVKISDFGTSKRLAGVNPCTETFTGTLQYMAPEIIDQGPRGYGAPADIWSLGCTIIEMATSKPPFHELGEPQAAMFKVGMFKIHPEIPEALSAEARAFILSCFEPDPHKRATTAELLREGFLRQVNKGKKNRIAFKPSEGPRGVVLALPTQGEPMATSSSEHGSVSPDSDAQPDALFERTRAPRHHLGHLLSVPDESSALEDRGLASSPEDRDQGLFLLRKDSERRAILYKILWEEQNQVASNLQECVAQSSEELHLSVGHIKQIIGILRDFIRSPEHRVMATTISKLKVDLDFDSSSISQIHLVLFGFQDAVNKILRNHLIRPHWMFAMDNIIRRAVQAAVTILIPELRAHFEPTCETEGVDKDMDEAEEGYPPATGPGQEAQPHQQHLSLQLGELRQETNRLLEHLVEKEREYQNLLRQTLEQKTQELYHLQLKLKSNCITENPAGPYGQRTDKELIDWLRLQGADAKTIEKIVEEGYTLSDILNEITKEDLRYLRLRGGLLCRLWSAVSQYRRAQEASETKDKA

## CC(C)C(=O)N1CCN(c2ccc(NC(=O)c3cc4ccccc4o3)cc2Cl)CC1 [Compound 21]
[1]
  Percent Control: 98%
[2]
  Percent Control: 87%
[3]
  Percent Control: 99%
[4]
  Percent Control: 97%
[5]
  Percent Control: 96%
[6]
  Percent Control: 90%
[7]
  Percent Control: 100%
[8]
  Percent Control: 100%
[9]
  Percent Control: 92%
[10]
  Percent Control: 94%
[11]
  Percent Control: 96%
[12]
  Percent Control: 89%
[13]
  Percent Control: 79%
[14]
  Percent Control: 99%
[15]
  Percent Control: 81%
[16]
  Percent Control: 85%
[17]
  Percent Control: 100%
[18]
  Percent Control: 100%
[19]
  Percent Control: 100%
[20]
  Percent Control: 93%
[21]
  Percent Control: 100%
[22]
  Percent Control: 100%
[23]
  Percent Control: 100%
[24]
  Percent Control: 79%
[25]
  Percent Control: 82%
[26]
  Percent Control: 100%
[27]
  Percent Control: 100%

Source: publication PMC8333425, “Discovery of a dual Ras and ARF6 inhibitor from a GPCR endocytosis screen” (Nature Communications, 2021)
